Results on 3 compounds are retold here after paper PMC3303611 (Journal of Medicinal Chemistry, 2012).

One may read the Ki as the dissociation constant of the complex between target and ligand, obtained from inhibition or displacement.

Where two headings read alike, the source gives them in different places.

The target in one experiment is H3 receptor (Homo sapiens, UniProt Q9Y5N1). Nature of the experiment: GTP-γ-S assay performed by the Psychoactive Drug Screening Program. It is filed as biochemical.
The next experiment deals with brain H3 receptors. Nature of the experiment: PET imaging of [18F]9 in monkey. It is filed as in vivo, rhesus monkey. Conditions: [18F]9 Vt, two monkeys, ciproxifan pretreatment.
The next experiment concerns the target rat H3 receptors. Conditions: known, ref not given; cited from earlier work.
The subject of the next experiment is human H3 receptors. Conditions: human vs rat H3; known, ref not given; cited from earlier work.

Sequence of H3 receptor (Q9Y5N1 whole entry): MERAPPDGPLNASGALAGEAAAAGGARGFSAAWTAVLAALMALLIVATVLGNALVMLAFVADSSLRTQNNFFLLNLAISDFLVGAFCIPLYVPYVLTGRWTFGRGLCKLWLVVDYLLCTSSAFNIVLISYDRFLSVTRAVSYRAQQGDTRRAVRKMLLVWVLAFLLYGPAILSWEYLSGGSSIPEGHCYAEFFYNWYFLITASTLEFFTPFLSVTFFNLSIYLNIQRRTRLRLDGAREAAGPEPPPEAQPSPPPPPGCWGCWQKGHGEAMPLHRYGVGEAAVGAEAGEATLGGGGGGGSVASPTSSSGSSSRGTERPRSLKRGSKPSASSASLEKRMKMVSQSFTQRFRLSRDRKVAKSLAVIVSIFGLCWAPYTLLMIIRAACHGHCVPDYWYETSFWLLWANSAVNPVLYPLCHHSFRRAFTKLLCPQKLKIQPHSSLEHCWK

For the compound `C[C@@H]1CCCN1CCc1cc2cc(C(=O)c3ccc([N+](=O)[O-])cc3)ccc2o1` [Compound 12, (R)-(2-(2-(2-Methylpyrrolidin-1-yl)ethyl)benzofuran-5-yl)(4-nitrophenyl)methanone], the intrinsic activity result at H3 receptor (GTP-γ-S assay, Psychoactive Drug Screening Program) was “inverse agonists”.

Take `C[C@@H]1CCCN1CCc1cc2cc(C(=O)c3ccc(F)cc3)ccc2o1` [Compound 9, (R)-(2-(2-(2-methylpyrrolidin-1-yl)ethyl)benzofuran-5-yl)(4-fluorophenyl)methanone]: on H3 receptor, the intrinsic activity entry is on record as “inverse agonists”.

Turning to `O=C(c1ccc(OCCCc2c[nH]cn2)cc1)C1CC1` [ciproxifan], the “Mean Vt decrease” value with brain H3 receptors (Cerebellum) was -26%; in the experiment on brain H3 receptors (Frontal cortex), -34%; with brain H3 receptors (Hippocampus) it was -33%; with brain H3 receptors (Striatum) it was -26%; in the experiment on brain H3 receptors (Thalamus) it was -33%. Moreover, at rat H3 receptors, the Ki was 0.51 nM. Moreover, the “lower affinity for human H3 receptors than for rat H3 receptors” value in the experiment with human H3 receptors was “over 100 fold”.
